These results are taken from patent US11802120B2, “Fused cyclic urea derivatives as CRHR2 antagonist” (RaQualia Pharma Inc., priority 2018, dated 2023).

Some results are limits rather than exact numbers.

In the assay the target is T1, human CRHR2-alpha (Homo sapiens, UniProt Q13324).
T1 sequence (Q13324 1-411): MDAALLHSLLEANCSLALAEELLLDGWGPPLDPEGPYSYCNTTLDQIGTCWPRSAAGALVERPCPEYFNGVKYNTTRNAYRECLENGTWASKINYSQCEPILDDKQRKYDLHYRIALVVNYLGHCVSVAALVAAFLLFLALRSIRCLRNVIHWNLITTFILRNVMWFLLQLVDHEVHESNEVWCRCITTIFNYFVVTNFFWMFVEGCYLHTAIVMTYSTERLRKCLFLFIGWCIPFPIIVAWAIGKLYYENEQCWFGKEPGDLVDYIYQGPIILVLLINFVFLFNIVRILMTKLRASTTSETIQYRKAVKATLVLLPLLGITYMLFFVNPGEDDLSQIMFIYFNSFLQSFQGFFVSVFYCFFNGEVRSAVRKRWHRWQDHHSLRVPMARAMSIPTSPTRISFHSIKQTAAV
Kind of assay: cAMP functional assay for human CRHR2 (LANCE Ultra cAMP, TR-FRET). Conditions: CHO-K1 cells expressing human CRHR2-alpha, agonist human urocortin2 at EC80, cAMP; read-out: IC50 against CRHR2. It counts as cell-based. Summed up: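 IC50 values derive from percent inhibition of EC80 agonist-stimulated cAMP in CHO-K1 transfectants, with 0.5 mM IBMX present; the CRHR2 line was stimulated by human urocortin2 and the CRHR1 line by CRF.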
(Time-resolved FRET reads energy transfer from a long-lived donor to a nearby acceptor.)
Broadly, the IC50 is the concentration that gives 50% inhibition. For the molecule `Cc1ncc(Cl)cc1C(=O)N[C@H]1CC[C@H](Cn2c(=O)n(-c3ccc4c(N)noc4c3)c3ccccc32)CC1` [Example 198, N-((1r,4r)-4-((3-(3-aminobenzo[d]isoxazol-6-yl)-2-oxo-2,3-dihydro-1H-benzo[d]imidazol-1-yl)methyl)cyclohexyl)-5-chloro-2-methylnicotinamide], the IC50 was less than 300 nM. Then `CNC(=O)c1cc(C)c(-n2c(=O)n(C[C@H]3CC[C@H](NC(=O)c4cc(Cl)cnc4C)CC3)c3ccccc32)cn1` [Example 199, 5-(3-(((1r,4r)-4-(5-chloro-2-methylnicotinamido)cyclo-hexyl)methyl)-2-oxo-2,3-dihydro-1H-benzo[d]imidazol-1-yl)-N,4-dimethylpicolinamide], with less than 300 nM; and `Cc1ncc(Cl)cc1C(=O)N[C@H]1CC[C@H](Cn2c(=O)n(-c3ccc4ncsc4c3)c3ncccc32)CC1` [Example 200, N-((1r,4r)-4-((3-(benzo[d]thiazol-6-yl)-2-oxo-2,3-dihydro-1H-imidazo[4,5-b]pyridin-1-yl)methyl)cyclohexyl)-5-chloro-2-methylnicotinamide], with less than 300 nM. Then `Cc1ncc(Cl)cc1C(=O)N[C@H]1CC[C@H](Cn2c(=O)n(-c3ccc(-c4cccnc4)nc3)c3ccccc32)CC1` [Example 201, N-((1r,4r)-4-((3-([2,3′-bipyridin]-5-yl)-2-oxo-2,3-dihydro-1H-benzo[d]imidazol-1-yl)methyl)cyclohexyl)-5-chloro-2-methylnicotinamide], with less than 300 nM; and `Cc1ncc(Cl)cc1C(=O)N[C@H]1CC[C@H](Cn2c(=O)n(-c3ccc(-c4cnco4)nc3)c3ccccc32)CC1` [Example 202, 5-chloro-2-methyl-N-((1r,4r)-4-((3-(6-(oxazol-5-yl)pyridin-3-yl)-2-oxo-2,3-dihydro-1H-benzo[d]imidazol-1-yl)methyl)cyclo-hexyl)nicotinamide], with less than 300 nM; and `Cc1ncc(Cl)cc1C(=O)N[C@H]1CC[C@H](Cn2c(=O)n(-c3ccc(-c4cn[nH]c4)nc3)c3ccccc32)CC1` [Example 203, N-((1r,4r)-4-((3-(6-(1H-pyrazol-4-yl)pyridin-3-yl)-2-oxo-2,3-dihydro-1H-benzo[d]imidazol-1-yl)methyl)cyclohexyl)-5-chloro-2-methylnicotinamide], with less than 300 nM. In the case of `Cc1ncc(Cl)cc1C(=O)N[C@H]1CC[C@H](Cn2c(=O)n(-c3ccc(Br)cc3C#N)c3ccccc32)CC1` [Example 204, N-((1r,4r)-4-((3-(4-bromo-2-cyanophenyl)-2-oxo-2,3-dihydro-1H-benzo[d]imidazol-1-yl)methyl)cyclo-hexyl)-5-chloro-2-methylnicotinamide] it was less than 300 nM; in that of `Cc1ncc(Cl)cc1C(=O)N[C@H]1CC[C@H](Cn2c(=O)n(-c3ccc4c(C)n[nH]c4c3)c3ccccc32)CC1` [Example 205, 5-chloro-2-methyl-N-((1r,4r)-4-((3-(3-methyl-1H-indazol-6-yl)-2-oxo-2,3-dihydro-1H-benzo[d]imidazol-1-yl)methyl)cyclohexyl)nicotinamide], less than 300 nM.

Regarding `Cc1ncc(Cl)cc1C(=O)N[C@H]1CC[C@H](Cn2c(=O)n(-c3ccc4c(c3)ncn4C)c3ccccc32)CC1` [Example 206, 5-chloro-2-methyl-N-((1r,4r)-4-((1′-methyl-2-oxo-1′H-[1,5′-bibenzo[d]imidazol]-3(2H)-yl)methyl)cyclohexyl)nico-tinamide], the IC50 was less than 300 nM. Consider `Cc1ncc(Cl)cc1C(=O)N[C@H]1CC[C@H](Cn2c(=O)n(-c3ccc4c(Cl)nn(C)c4c3)c3ccccc32)CC1` [Example 208, 5-chloro-N-((1r,4r)-4-((3-(3-chloro-1-methyl-1H-indazol-6-yl)-2-oxo-2,3-dihydro-1H-benzo[d]imidazol-1-yl)methyl)cyclohexyl)-2-methylnico-tinamide], for which the IC50 is less than 300 nM. In the case of `Cc1ncc(Cl)cc1C(=O)N[C@H]1CC[C@H](Cn2c(=O)n(-c3ccc4nc(C)n(C)c4c3)c3ccccc32)CC1` [Example 209, 5-chloro-N-((1r,4r)-4-((2′,3′-dimethyl-2-oxo-3′H-[1,5′-bibenzo[d]imidazol]-3(2H)-yl)methyl)cyclohexyl)-2-methylnicotinamide] it was less than 300 nM; in that of `Cc1ncc(Cl)cc1C(=O)N[C@H]1CC[C@H](Cn2c(=O)n(-c3ccc4c(Cl)n[nH]c4c3)c3ccccc32)CC1` [Example 210, 5-chloro-N-((1r,4r)-4-((3-(3-chloro-1H-indazol-6-yl)-2-oxo-2,3-dihydro-1H-benzo[d]imidazol-1-yl)methyl)cyclohexyl)-2-methylnicotinamide], less than 300 nM. In the case of `Cc1ncc(Cl)cc1C(=O)N[C@H]1CC[C@H](Cn2c(=O)n(C3Cc4ccc(Br)cc4C3)c3ccncc32)CC1` (stereo partly drawn) [Example 211, N-((1r,4r)-4-((1-(5-bromo-2,3-dihydro-1H-inden-2-yl)-2-oxo-1H-imidazo[4,5-c]pyridin-3(2H)-yl)methyl)cyclohexyl)-5-chloro-2-methylnicotinamide], the IC50 was less than 300 nM.

Consider `Cc1ncc(Cl)cc1C(=O)N[C@H]1CC[C@H](Cn2c(=O)n(-c3ccc4[nH]nc(C)c4c3)c3ncccc32)CC1` [Example 212, 5-chloro-2-methyl-N-((1r,4r)-4-((3-(3-methyl-1H-indazol-5-yl)-2-oxo-2,3-dihydro-1H-imidazo[4,5-b]pyridin-1-yl)methyl)cyclohexyl)nicotinamide], for which the IC50 is less than 300 nM. Consider `Cc1ncc(Cl)cc1C(=O)N[C@H]1CC[C@H](Cn2c(=O)n(-c3ccc4c(c3)c(C)nn4C)c3ccccc32)CC1` [Example 213, 5-chloro-N-((1r,4r)-4-((3-(1,3-dimethyl-1H-indazol-5-yl)-2-oxo-2,3-dihydro-1H-benzo[d]imidazol-1-yl)methyl)cyclohexyl)-2-methylnicotinamide], for which the IC50 was less than 300 nM. Then `Cc1ncc(Cl)cc1C(=O)N[C@H]1CC[C@H](Cn2c(=O)n(-c3ccc(-c4cnn(C)c4)nc3)c3ccccc32)CC1` [Example 214, 5-chloro-2-methyl-N-((1r,4r)-4-((3-(6-(1-methyl-1H-pyrazol-4-yl)pyridin-3-yl)-2-oxo-2,3-dihydro-1H-benzo[d]imidazol-1-yl)methyl)cyclohexyl)nico-tinamide], with less than 300 nM; and `Cc1ncc(Cl)cc1C(=O)N[C@H]1CC[C@H](Cn2c(=O)n(-c3cnc4c(c3)oc(=O)n4C)c3ccccc32)CC1` [Example 215, 5-chloro-2-methyl-N-((1r,4r)-4-((3-(3-methyl-2-oxo-2,3-dihydrooxazolo[4,5-b]pyridin-6-yl)-2-oxo-2,3-dihydro-1H-benzo[d]imidazol-1-yl)methyl)cyclohexyl)nicotinamide], with less than 300 nM; and `Cc1ncc(Cl)cc1C(=O)N[C@H]1CC[C@H](Cn2c(=O)n(-c3ccc(-c4ccc(N)nc4)nc3)c3ccccc32)CC1` [Example 216], with less than 300 nM. As for `CC(=O)N1CCc2cc(-n3c(=O)n(C[C@H]4CC[C@H](NC(=O)c5cc(Cl)cnc5C)CC4)c4ccccc43)ccc2C1` [Example 218, N-((1r,4r)-4-((3-(2-acetyl-1,2,3,4-tetrahydroisoquinolin-6-yl)-2-oxo-2,3-dihydro-1H-benzo[d]imidazol-1-yl)methyl)cyclohexyl)-5-chloro-2-methylnicotinamide], the IC50 is less than 300 nM. Then `Cc1ncc(Cl)cc1C(=O)N[C@H]1CC[C@H](Cn2c(=O)n(-c3ccccc3C#N)c3ccccc32)CC1` [Example 219, 5-chloro-N-((1r,4r)-4-((3-(2-cyanophenyl)-2-oxo-2,3-dihydro-1H-benzo[d]imidazol-1-yl)methyl)cyclohexyl)-2-methylnicotinamide], with less than 300 nM; and `COc1ccc(-n2c(=O)n(C[C@H]3CC[C@H](NC(=O)c4c5ccccc5nn4C)CC3)c3ccccc32)cn1` [Example 220, N-((1r,4r)-4-((3-(6-methoxy-pyridin-3-yl)-2-oxo-2,3-dihydro-1H-benzo[d]imidazol-1-yl)methyl)cyclohexyl)-2-methyl-2H-indazole-3-carboxamide], with less than 300 nM; and `COc1ccc(-n2c(=O)n(C[C@H]3CC[C@H](NC(=O)c4c5c(nn4C)CCCC5)CC3)c3ccccc32)cn1` [Example 221, N-((1r,4r)-4-((3-(6-methoxy-pyridin-3-yl)-2-oxo-2,3-dihydro-1H-benzo[d]imidazol-1-yl)methyl)cyclohexyl)-2-methyl-4,5,6,7-tetrahydro-2H-indazole-3-carboxamide], with less than 300 nM. Take `Cc1ncc(Cl)cc1C(=O)N[C@H]1CC[C@H](Cn2c(=O)n(-c3ccc4[nH]nc(Cl)c4c3)c3ccccc32)CC1` [Example 222, 5-chloro-N-((1r,4r)-4-((3-(3-chloro-1H-indazol-5-yl)-2-oxo-2,3-dihydro-1H-benzo[d]imidazol-1-yl)methyl)cyclohexyl)-2-methylnicotinamide]: the IC50 was less than 300 nM.

For `COc1ccc(-n2c(=O)n(C[C@H]3CC[C@H](NC(=O)c4cc(Cl)ccc4C)CC3)c3ccccc32)cn1` [Example 223, 5-chloro-N-((1r,4r)-4-((3-(6-methoxypyridin-3-yl)-2-oxo-2,3-dihydro-1H-benzo[d]imidazol-1-yl)methyl)cyclo-hexyl)-2-methylbenzamide], the IC50 is less than 300 nM.
